Measured values from US20260356841A1, “HETEROCYCLIC PYRIDINONE COMPOUNDS AS TRIGGERING RECEPTOR EXPRESSED ON MYELOID CELLS 2 AGONISTS AND METHODS OF USE” (Vigil Neuroscience, Inc., priority 2023, published 2026).

Molecular target: T1, human TREM2 (Homo sapiens, UniProt Q9NZC2)
T1 construct: expressed in transfected cells; host or cells: HEK293T (HEK293T-hTREM2 cells)
Assay: TREM2 agonist potency by cellular phosphorylation of Spleen Tyrosine Kinase (Syk), AlphaLisa, HEK293T-hTREM2 cells
Format: cell-based
Conditions: not given
Outline: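 HEK293T cells co-expressing human TREM2 and DAP12, plated 20–24 h before use. Compounds applied 45 min at room temperature in assay buffer, then cells lysed and phospho-Syk quantified by AlphaLisa. Percent activation from a standard curve; EC50 from a four-parameter variable-slope fit.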

T1 sequence (Q9NZC2 19-230): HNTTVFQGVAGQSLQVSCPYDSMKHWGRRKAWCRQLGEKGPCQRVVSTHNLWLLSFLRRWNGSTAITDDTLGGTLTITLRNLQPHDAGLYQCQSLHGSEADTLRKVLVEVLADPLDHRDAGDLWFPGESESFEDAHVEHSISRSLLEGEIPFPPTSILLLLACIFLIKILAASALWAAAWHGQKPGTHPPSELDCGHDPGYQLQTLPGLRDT
T1 sequence (O43914 22-113 partner): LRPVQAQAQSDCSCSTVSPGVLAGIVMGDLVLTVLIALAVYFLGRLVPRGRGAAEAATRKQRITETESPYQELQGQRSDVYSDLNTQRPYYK

| SMILES | EC50 [nM] |
| --- | --- |
| Cc1nc2cc(N3C[C@@H](C)O[C@@H](c4ccc(=O)n(C)c4)C3)nc(-c3ccc(F)cc3F)c2nc1C [Example 191, 5-((2S,6R)-4-(5-(2,4-difluorophenyl)-2,3-dimethylpyrido[3,4-b]pyrazin-7-yl)-6-methylmorpholin-2-yl)-1-methylpyridin-2 (1H)-one] | < 100 |
| Cc1cc2c(-c3ccc(F)cc3F)nc(N3C[C@@H](C)O[C@@H](c4ccc(=O)n(C)c4)C3)cc2nc1C [Example 196, 5-((2S,6R)-4-(5-(2,4-difluorophenyl)-2,3-dimethyl-1,6-naphthyridin-7-yl)-6-methylmorpholin-2-yl)-1-methylpyridin-2 (1H)-one] | < 100 |

Same assay, conditions: hTREM2 EC50 Data (HEK293 Cells); Syk phosphorylation, AlphaLisa; read-out: hTREM2 EC50

| SMILES | EC50 [nM] |
| --- | --- |
| Cc1nc2nc(N3C[C@@H](C)O[C@@H](c4ccc(=O)n(N)c4)C3)nc(C34CC(C(F)(F)F)(C3)C4)c2nc1C1COC1 [Example 185, 1-amino-5-[(2S,6R)-6-methyl-4-[7-methyl-6-(oxetan-3-yl)-4-[3-(trifluoromethyl)-1-bicyclo[1.1.1]pentanyl]pteridin-2-yl]morpholin-2-yl]pyridin-2-one] | 100 to 500 |
| Cc1nc2cc(N3C[C@@H](C)O[C@@H](c4ccc(=O)[nH]c4)C3)nc(-c3ccc(F)cc3F)c2nc1C [Example 186, 5-((2S,6R)-4-(5-(2,4-difluorophenyl)-2,3-dimethylpyrido[3,4-b]pyrazin-7-yl)-6-methylmorpholin-2-yl)pyridin-2(1H)-one] | 100 to 500 |
| Cc1cnc2c(C34CC(C(F)(F)F)(C3)C4)nc([C@H]3CCO[C@@H](c4ccc(=O)[nH]c4)C3)nc2n1 [Example 187, 5-((2R,4S)-4-(7-methyl-4-(3-(trifluoromethyl)bicyclo[1.1.1]pentan-1-yl)pteridin-2-yl)tetrahydro-2H-pyran-2-yl)pyridin-2(1H)-one] | 100 to 500 |
| CN(C)c1nc2c(C34CC(C(F)(F)F)(C3)C4)nc([C@H]3CCO[C@@H](c4ccc(=O)n(C)c4)C3)nc2n1C [Example 188] | > 500 |
| Cc1nc2nc(N3CCC(F)(F)C(c4ccc(=O)[nH]c4)C3)nc(-c3ccc(F)cc3F)c2nc1C (stereo not drawn) [Example 189, 5-[1-[4-(2,4-difluorophenyl)-6,7-dimethyl-pteridin-2-yl]-4,4-difluoro-3-piperidyl]-1H-pyridin-2-one] | < 100 |
| Cc1nc2nc(N3CCC(F)(F)C(c4ccc(=O)n(C)c4)C3)nc(-c3ccc(F)cc3F)c2nc1C (stereo not drawn) [Example 190, 5-[1-[4-(2,4-difluorophenyl)-6,7-dimethyl-pteridin-2-yl]-4,4-difluoro-3-piperidyl]-1-methyl-pyridin-2-one] | < 100 |
| Cc1cc2c(-c3ccc(F)cc3F)nc(N3C[C@@H](C)O[C@@H](c4ccc(=O)[nH]c4)C3)cc2nc1C [Example 192, 5-((2S,6R)-4-(5-(2,4-difluorophenyl)-2,3-dimethyl-1,6-naphthyridin-7-yl)-6-methylmorpholin-2-yl)pyridin-2(1H)-one] | 100 to 500 |
| Cc1cc2c(-c3ccc(F)cc3F)nc(N3C[C@@H](C)O[C@@H](c4ccc(=O)n(N)c4)C3)cc2nc1C [Example 193, 1-amino-5-[(2S,6R)-4-[5-(2,4-difluorophenyl)-2,3-dimethyl-1,6-naphthyridin-7-yl]-6-methyl-morpholin-2-yl]pyridin-2-one] | < 100 |
| Cc1nc2cc(C3CCO[C@@H](c4ccc(=O)n(C)c4)C3)nc(-c3ccc(F)cc3F)c2nc1C (stereo partly drawn) [Example 194, 5-(4-(5-(2,4-difluorophenyl)-2,3-dimethylpyrido[3,4-b]pyrazin-7-yl)tetrahydro-2H-pyran-2-yl)-1-methylpyridin-2 (1H)-one] | 100 to 500 |
| Cc1nc2nc(N3C[C@@H](C)O[C@@H](c4ccc(=O)[nH]c4)C3)nc(C34CC(C(F)(F)F)(C3)C4)c2nc1C1COC1 [Example 195, 5-[(2S,6R)-6-methyl-4-[7-methyl-6-(oxetan-3-yl)-4-[3-(trifluoromethyl)-1-bicyclo[1.1.1]pentanyl]pteridin-2-yl]morpholin-2-yl]-1H-pyridin-2-one] | < 100 |
| Cc1cnc2nc([C@H]3CCO[C@@H](c4ccc(=O)[nH]c4)C3)nc(C34CC(C(F)(F)F)(C3)C4)c2n1 [Example 197, 5-((2R,4S)-4-(6-methyl-4-(3-(trifluoromethyl)bicyclo[1.1.1]pentan-1-yl)pteridin-2-yl)tetrahydro-2H-pyran-2-yl)pyridin-2(1H)-one] | 100 to 500 |
| Cc1cnc2nc([C@H]3CCO[C@@H](c4ccc(=O)n(C)c4)C3)nc(C34CC(C(F)(F)F)(C3)C4)c2n1 [Example 198, 1-methyl-5-((2R,4S)-4-(6-methyl-4-(3-(trifluoromethyl)bicyclo[1.1.1]pentan-1-yl)pteridin-2-yl)tetrahydro-2H-pyran-2-yl)pyridin-2(1H)-one] | 100 to 500 |
| [2H]C([2H])([2H])c1nc2nc([C@H]3CCO[C@@H](c4ccc(=O)n(C5CC5)c4)C3)nc(C34CC(C(F)(F)F)(C3)C4)c2nc1C([2H])([2H])[2H] [Example 201, 5-((2R,4S)-4-(6,7-bis(methyl-d3)-4-(3-(trifluoromethyl)bicyclo[1.1.1]pentan-1-yl)pteridin-2-yl)tetrahydro-2H-pyran-2-yl)-1-cyclopropylpyridin-2 (1H)-one] | < 100 |
| CN(C)c1nc2nc([C@H]3CCO[C@@H](c4ccc(=O)n(C)c4)C3)nc(C34CC(C(F)(F)F)(C3)C4)c2n1C [Example 202, 5-((2R,4S)-4-(8-(dimethylamino)-7-methyl-6-(3-(trifluoromethyl)bicyclo[1.1.1]pentan-1-yl)-7H-purin-2-yl)tetrahydro-2H-pyran-2-yl)-1-methylpyridin-2 (1H)-one] | 100 to 500 |
| COn1cc([C@H]2C[C@@H](c3nc(C45CC(C(F)(F)F)(C4)C5)c4nc(C)c(C)nc4n3)CCO2)ccc1=O [Example 203, 5-[(2R,4S)-4-[6,7-dimethyl-4-[3-(trifluoromethyl)-1-bicyclo[1.1.1]pentanyl]pteridin-2-yl]tetrahydropyran-2-yl]-1-methoxy-pyridin-2-one] | < 100 |
| Cc1nc2nc(N3C[C@@H](C)O[C@@H](c4ccc(=O)n(C)c4)C3)nc(C34CC(C(N)=O)(C3)C4)c2nc1C [Example 204, 3-[6,7-dimethyl-2-[(2R,6S)-2-methyl-6-(1-methyl-6-oxo-3-pyridyl)morpholin-4-yl]pteridin-4-yl]bicyclo[1.1.1]pentane-1-carboxamide] | > 500 |
| Cc1nc2nc(N3C[C@@H](C)O[C@@H](c4ccc(=O)n(C)c4)C3)nc(C34CC(C#N)(C3)C4)c2nc1C [Example 205, 3-[6,7-dimethyl-2-[(2R,6S)-2-methyl-6-(1-methyl-6-oxo-3-pyridyl)morpholin-4-yl]pteridin-4-yl]bicyclo[1.1.1]pentane-1-carbonitrile] | < 100 |
| C=CCN(CC=C)n1cc([C@H]2C[C@@H](c3nc(C45CC(C(F)(F)F)(C4)C5)c4nc(C)c(C)nc4n3)CCO2)ccc1=O [Example 206, 1-(diallylamino)-5-[(2R,4S)-4-[6,7-dimethyl-4-[3-(trifluoromethyl)-1-bicyclo[1.1.1]pentanyl]pteridin-2-yl]tetrahydropyran-2-yl]pyridin-2-one] | < 100 |
| C=CCNn1cc([C@H]2C[C@@H](c3nc(C45CC(C(F)(F)F)(C4)C5)c4nc(C)c(C)nc4n3)CCO2)ccc1=O [Example 207, 1-(allylamino)-5-[(2R,4S)-4-[6,7-dimethyl-4-[3-(trifluoromethyl)-1-bicyclo[1.1.1]pentanyl]pteridin-2-yl]tetrahydropyran-2-yl]pyridin-2-one] | < 100 |
| CC(C)=Nn1cc([C@H]2C[C@@H](c3nc(C45CC(C(F)(F)F)(C4)C5)c4cc(C(F)(F)F)c(C)nc4n3)CCO2)ccc1=O [Example 208, 5-((2R,4S)-4-(7-methyl-6-(trifluoromethyl)-4-(3-(trifluoromethyl)bicyclo[1.1.1]pentan-1-yl)pyrido[2,3-d]pyrimidin-2-yl)tetrahydro-2H-pyran-2-yl)-1-(propan-2-ylideneamino)pyridin-2 (1H)-one] | < 100 |
| Cc1nc2nc([C@H]3CCO[C@@H](c4ccc(=O)n(N5CCCC5)c4)C3)nc(C34CC(C(F)(F)F)(C3)C4)c2nc1C [Example 209, 5-[(2R,4S)-4-[6,7-dimethyl-4-[3-(trifluoromethyl)-1-bicyclo[1.1.1]pentanyl]pteridin-2-yl]tetrahydropyran-2-yl]-1-pyrrolidin-1-yl-pyridin-2-one] | < 100 |
| Cc1nc2nc([C@H]3CCO[C@@H](c4ccc(=O)n(N5CC=CC5)c4)C3)nc(C34CC(C(F)(F)F)(C3)C4)c2nc1C [Example 210, 1-(2,5-dihydropyrrol-1-yl)-5-[(2R,4S)-4-[6,7-dimethyl-4-[3-(trifluoromethyl)-1-bicyclo[1.1.1]pentanyl]pteridin-2-yl]tetrahydropyran-2-yl]pyridin-2-one] | < 100 |
| CCCN(CCC)n1cc([C@H]2C[C@@H](c3nc(C45CC(C(F)(F)F)(C4)C5)c4nc(C)c(C)nc4n3)CCO2)ccc1=O [Example 211, 5-[(2R,4S)-4-[6,7-dimethyl-4-[3-(trifluoromethyl)-1-bicyclo[1.1.1]pentanyl]pteridin-2-yl]tetrahydropyran-2-y1]-1-(dipropylamino)pyridin-2-one] | < 100 |
| CCCNn1cc([C@H]2C[C@@H](c3nc(C45CC(C(F)(F)F)(C4)C5)c4nc(C)c(C)nc4n3)CCO2)ccc1=O [Example 212, 5-[(2R,4S)-4-[6,7-dimethyl-4-[3-(trifluoromethyl)-1-bicyclo[1.1.1]pentanyl]pteridin-2-yl]tetrahydropyran-2-yl]-1-(propylamino)pyridin-2-one] | < 100 |
| C=CC(=O)Nn1cc([C@H]2C[C@@H](c3nc(C45CC(C(F)(F)F)(C4)C5)c4nc(C)c(C)nc4n3)CCO2)ccc1=O [Example 213, N-[5-[(2R,4S)-4-[6,7-dimethyl-4-[3-(trifluoromethyl)-1-bicyclo[1.1.1]pentanyl]pteridin-2-yl]tetrahydropyran-2-yl]-2-oxo-1-pyridyl]prop-2-enamide] | < 100 |
